Read-outs that look alike come from different tables or passages of the source.
Tests used:
HDAC1 = HDAC1 (Homo sapiens, UniProt Q13547); experiment: HDAC 1 fluorogenic assay kit
Description: (§1) Test materials were stored at room temperature and stock solutions were prepared at 20 mg/ml in DMSO. Further dilutions were made in sterile distilled water immediately before being added to the reaction mixture containing a substrate, and the reaction was triggered by the addition of purified HDAC enzymes, Double distilled water was the negative control and trichostatin (1.5 ug/ml) was used as a positive control for validation of each study. The test procedure was as directed in the assay kits. The products of the reactions were measured by fluorometry at ex/em 350/450 nm using multi-well plate fluorometer Cytofluor 4000 (Applied Biosystem, Foster City, CA) or using SpectraMax i3× Multi-Mode Detection Platform from Molecular Devices (Sunnyvale, CA).
(§2) Statistical significance was assessed with a two-tail Student test. Deviations of ≤20% as compared to water control with p values below 0.05 were considered statistically significant.

FAAH = target: T1, FAAH (Homo sapiens, UniProt O00519); experiment: FAAH fluorescence-based inhibitory assay; type: biochemical
T1 sequence (O00519 1-579): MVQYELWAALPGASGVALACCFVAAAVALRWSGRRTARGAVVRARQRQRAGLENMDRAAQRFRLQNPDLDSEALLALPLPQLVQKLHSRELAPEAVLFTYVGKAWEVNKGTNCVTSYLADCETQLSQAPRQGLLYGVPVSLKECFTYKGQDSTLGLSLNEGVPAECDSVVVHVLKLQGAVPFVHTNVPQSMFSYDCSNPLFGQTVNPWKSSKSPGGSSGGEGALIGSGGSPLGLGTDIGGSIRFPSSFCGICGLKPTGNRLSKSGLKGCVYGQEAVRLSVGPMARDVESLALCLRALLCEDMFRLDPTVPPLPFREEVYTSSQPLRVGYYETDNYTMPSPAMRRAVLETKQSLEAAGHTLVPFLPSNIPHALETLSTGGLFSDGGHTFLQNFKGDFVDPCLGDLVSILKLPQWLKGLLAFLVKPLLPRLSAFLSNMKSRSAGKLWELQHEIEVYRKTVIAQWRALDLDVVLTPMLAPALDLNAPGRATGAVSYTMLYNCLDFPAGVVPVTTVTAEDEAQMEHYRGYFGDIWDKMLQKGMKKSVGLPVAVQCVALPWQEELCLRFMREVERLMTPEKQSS

HDAC6 = target: T2, HDAC6 (Homo sapiens, UniProt Q9UBN7)
T2 sequence (Q9UBN7 1-1215): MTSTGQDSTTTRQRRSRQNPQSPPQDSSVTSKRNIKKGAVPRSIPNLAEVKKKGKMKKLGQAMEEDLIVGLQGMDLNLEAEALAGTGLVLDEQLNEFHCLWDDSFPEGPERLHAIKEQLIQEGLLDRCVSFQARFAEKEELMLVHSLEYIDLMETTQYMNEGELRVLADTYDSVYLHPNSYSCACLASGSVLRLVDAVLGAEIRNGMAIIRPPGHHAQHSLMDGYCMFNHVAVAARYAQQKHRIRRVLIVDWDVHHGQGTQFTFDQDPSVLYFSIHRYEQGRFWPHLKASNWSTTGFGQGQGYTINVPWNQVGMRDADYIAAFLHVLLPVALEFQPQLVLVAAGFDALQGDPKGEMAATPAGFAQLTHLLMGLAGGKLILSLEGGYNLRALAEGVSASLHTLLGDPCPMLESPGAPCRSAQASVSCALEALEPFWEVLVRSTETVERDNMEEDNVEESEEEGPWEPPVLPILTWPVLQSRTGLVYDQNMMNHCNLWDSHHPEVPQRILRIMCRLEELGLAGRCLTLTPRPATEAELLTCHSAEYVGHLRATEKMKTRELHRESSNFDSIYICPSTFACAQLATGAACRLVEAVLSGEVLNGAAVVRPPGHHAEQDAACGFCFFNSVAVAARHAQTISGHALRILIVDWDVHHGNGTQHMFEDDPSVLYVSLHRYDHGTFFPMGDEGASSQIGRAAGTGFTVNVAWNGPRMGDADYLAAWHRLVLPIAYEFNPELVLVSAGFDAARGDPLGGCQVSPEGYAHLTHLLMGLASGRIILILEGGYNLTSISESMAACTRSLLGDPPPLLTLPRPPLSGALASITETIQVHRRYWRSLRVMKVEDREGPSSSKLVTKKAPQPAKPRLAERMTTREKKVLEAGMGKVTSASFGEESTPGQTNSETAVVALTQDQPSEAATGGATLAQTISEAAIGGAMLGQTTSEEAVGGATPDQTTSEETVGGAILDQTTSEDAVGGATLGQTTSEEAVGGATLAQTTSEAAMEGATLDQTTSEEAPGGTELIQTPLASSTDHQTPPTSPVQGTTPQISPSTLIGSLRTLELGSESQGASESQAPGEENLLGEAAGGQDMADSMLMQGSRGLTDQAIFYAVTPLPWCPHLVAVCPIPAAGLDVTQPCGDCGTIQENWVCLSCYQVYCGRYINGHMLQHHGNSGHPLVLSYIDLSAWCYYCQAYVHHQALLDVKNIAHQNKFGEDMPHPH
Description: as §1, §2

HDAC 11 = target: T3, HDAC 11 (Homo sapiens, UniProt Q96DB2); experiment: HDAC 11 fluorogenic assay kit; type: biochemical
T3 construct: purchased BPS Biosciences 50687
T3 sequence (Q96DB2 1-347): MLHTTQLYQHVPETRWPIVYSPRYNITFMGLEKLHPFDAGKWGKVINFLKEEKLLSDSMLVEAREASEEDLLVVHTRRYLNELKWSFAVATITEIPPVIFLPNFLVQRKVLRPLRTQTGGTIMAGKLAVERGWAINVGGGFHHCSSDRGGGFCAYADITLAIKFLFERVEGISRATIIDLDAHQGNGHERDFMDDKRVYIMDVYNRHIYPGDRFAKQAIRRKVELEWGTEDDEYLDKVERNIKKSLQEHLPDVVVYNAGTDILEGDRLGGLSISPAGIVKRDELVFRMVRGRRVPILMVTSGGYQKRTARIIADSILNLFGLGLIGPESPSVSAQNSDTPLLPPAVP
Description: as §1, §2

HDAC2 = HDAC2 (Homo sapiens, UniProt Q92769)
Sequence of HDAC2 (Q92769 whole entry): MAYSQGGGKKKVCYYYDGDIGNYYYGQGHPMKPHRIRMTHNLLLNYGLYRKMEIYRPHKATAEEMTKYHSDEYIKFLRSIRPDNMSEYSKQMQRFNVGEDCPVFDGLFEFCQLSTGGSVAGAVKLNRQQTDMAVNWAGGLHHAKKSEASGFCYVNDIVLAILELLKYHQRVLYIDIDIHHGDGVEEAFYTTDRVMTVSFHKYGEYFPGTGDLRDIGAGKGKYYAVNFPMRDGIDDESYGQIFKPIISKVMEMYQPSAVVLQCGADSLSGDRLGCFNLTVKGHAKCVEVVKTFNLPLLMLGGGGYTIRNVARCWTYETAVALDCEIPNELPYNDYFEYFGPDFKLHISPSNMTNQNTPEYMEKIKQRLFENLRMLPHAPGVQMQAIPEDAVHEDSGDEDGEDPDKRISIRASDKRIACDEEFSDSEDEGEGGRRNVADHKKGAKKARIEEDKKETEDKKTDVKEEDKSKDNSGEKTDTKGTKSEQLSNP
Description: as §1, §2

FABP-5 = target: T4, FABP-5 (Homo sapiens, UniProt Q01469); experiment: FABP-5 ELISA inhibitory assay; type: biochemical
T4 construct: purchased Raybiotech 268-10276-1
T4 sequence (Q01469 whole entry): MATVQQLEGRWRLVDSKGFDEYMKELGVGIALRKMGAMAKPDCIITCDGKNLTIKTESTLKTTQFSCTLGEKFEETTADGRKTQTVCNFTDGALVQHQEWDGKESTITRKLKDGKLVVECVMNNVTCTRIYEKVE

FABP-3 = target: T5, FABP-3 (Homo sapiens, UniProt P05413); experiment: FABP-3 ELISA inhibitory assay; type: biochemical
T5 construct: purchased Neovateinbio PT-452
T5 sequence (P05413 whole entry): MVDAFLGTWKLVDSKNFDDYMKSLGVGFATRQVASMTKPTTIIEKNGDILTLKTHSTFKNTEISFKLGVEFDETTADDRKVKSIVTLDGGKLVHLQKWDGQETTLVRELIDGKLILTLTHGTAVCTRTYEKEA

Sequence of HDAC1 (Q13547 whole entry): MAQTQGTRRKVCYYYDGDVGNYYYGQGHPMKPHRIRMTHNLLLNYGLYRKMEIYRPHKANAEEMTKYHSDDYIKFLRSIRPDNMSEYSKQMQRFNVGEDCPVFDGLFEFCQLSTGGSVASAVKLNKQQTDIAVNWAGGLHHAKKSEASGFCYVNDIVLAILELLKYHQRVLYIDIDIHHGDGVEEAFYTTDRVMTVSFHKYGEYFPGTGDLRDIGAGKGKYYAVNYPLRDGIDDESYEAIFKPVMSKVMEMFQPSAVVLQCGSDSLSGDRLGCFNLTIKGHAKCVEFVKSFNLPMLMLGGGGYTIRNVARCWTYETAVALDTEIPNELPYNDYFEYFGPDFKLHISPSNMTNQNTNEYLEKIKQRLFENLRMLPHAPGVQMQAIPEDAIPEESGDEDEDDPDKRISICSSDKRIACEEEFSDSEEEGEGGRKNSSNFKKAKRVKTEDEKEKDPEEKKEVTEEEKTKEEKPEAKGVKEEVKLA

CCCC(=O)NCCCCC(NC(=O)CCC)C(=O)[O-].CCCC(=O)NCCCCC(NC(=O)CCC)C(=O)[O-].[Ca+2] (stereo not shown) [Ca di-(di-n-butyryl lysinate), calcium di-(di-n-butyryl lysinate)]
HDAC 1 activity, % of water-treated controls (HDAC1; 25 ug/ml): 80%
HDAC 1 activity, % of water-treated controls (HDAC1; 50 ug/ml): 89%
HDAC 1 activity, % of water-treated controls (HDAC1; 100 ug/ml): 135%
FAAH IC50 (FAAH): 213.6 µg/mL
HDAC 6 activity, % of water-treated controls (HDAC6; 5 ug/ml): 105%
HDAC 6 activity, % of water-treated controls (HDAC6; 25 ug/ml): 97%
HDAC 6 activity, % of water-treated controls (HDAC6; 50 ug/ml): 124%
HDAC 6 activity, % of water-treated controls (HDAC6; 100 ug/ml): 128%
HDAC 6 activity, % of water-treated controls (HDAC6; 200 ug/ml): 134%
HDAC 11 activity, % of water-treated controls (HDAC 11; 25 ug/ml): 106%
HDAC 11 activity, % of water-treated controls (HDAC 11; 50 ug/ml): 100%
HDAC 11 activity, % of water-treated controls (HDAC 11; 100 ug/ml): 101%
HDAC 11 activity, % of water-treated controls (HDAC 11; 200 ug/ml): 97%
HDAC 2 activity, % of water-treated controls (HDAC2; 25 ug/ml): 96%
HDAC 2 activity, % of water-treated controls (HDAC2; 50 ug/ml): 90%
HDAC 2 activity, % of water-treated controls (HDAC2; 100 ug/ml): 97%
HDAC 2 activity, % of water-treated controls (HDAC2; 200 ug/ml): 94%
FABP-5 IC50 (FABP-5): 786 µg/mL
FABP-3 IC50 (FABP-3): 188.6 µg/mL

CCCC(=O)[O-].[Na+] [Sodium butyrate, reference compound]
HDAC 1 activity, % of water-treated controls (HDAC1; 50 ug/ml): 109%
HDAC 1 activity, % of water-treated controls (HDAC1; 100 ug/ml): 46%
HDAC 1 activity, % of water-treated controls (HDAC1; 200 ug/ml): 39%
HDAC 1 activity, % of water-treated controls (HDAC1; 400 ug/ml): 38%
IC50 (FAAH): 7.31 mM
HDAC 6 activity, % of water-treated controls (HDAC6; 50 ug/ml): 107%
HDAC 6 activity, % of water-treated controls (HDAC6; 100 ug/ml): 110%
HDAC 6 activity, % of water-treated controls (HDAC6; 200 ug/ml): 92%
HDAC 6 activity, % of water-treated controls (HDAC6; 400 ug/ml): 102%
HDAC 11 activity, % of water-treated controls (HDAC 11; 50 ug/ml): 89%
HDAC 11 activity, % of water-treated controls (HDAC 11; 100 ug/ml): 87%
HDAC 11 activity, % of water-treated controls (HDAC 11; 200 ug/ml): 84%
HDAC 11 activity, % of water-treated controls (HDAC 11; 400 ug/ml): 91%
HDAC 2 activity, % of water-treated controls (HDAC2; 50 ug/ml): 89%
HDAC 2 activity, % of water-treated controls (HDAC2; 100 ug/ml): 93%
HDAC 2 activity, % of water-treated controls (HDAC2; 200 ug/ml): 94%
HDAC 2 activity, % of water-treated controls (HDAC2; 400 ug/ml): 95%

CCCC(=O)NCCCC[C@H](NC(=O)CCC)C(=O)[O-].CCCC(=O)NCCCC[C@H](NC(=O)CCC)C(=O)[O-].[Zn+2] [Zn di-(di-n-butyryl lysinate), Zinc di-(di-n-butyryl lysinate)]
HDAC 1 activity, % of water-treated controls (HDAC1; 5 ug/ml): 30%
HDAC 1 activity, % of water-treated controls (HDAC1; 25 ug/ml): 32%
HDAC 1 activity, % of water-treated controls (HDAC1; 50 ug/ml): 38%
HDAC 1 activity, % of water-treated controls (HDAC1; 100 ug/ml): 49%
HDAC 1 activity, % of water-treated controls (HDAC1; 200 ug/ml): 45%
FAAH IC50 (FAAH): 368.7 µg/mL
HDAC 6 activity, % of water-treated controls (HDAC6; 5 ug/ml): 25%
HDAC 6 activity, % of water-treated controls (HDAC6; 25 ug/ml): 18%
HDAC 6 activity, % of water-treated controls (HDAC6; 50 ug/ml): 19%
HDAC 6 activity, % of water-treated controls (HDAC6; 100 ug/ml): 21%
HDAC 6 activity, % of water-treated controls (HDAC6; 200 ug/ml): 19%
HDAC 11 activity, % of water-treated controls (HDAC 11; 5 ug/ml): 102%
HDAC 11 activity, % of water-treated controls (HDAC 11; 25 ug/ml): 63%
HDAC 11 activity, % of water-treated controls (HDAC 11; 50 ug/ml): 17%
HDAC 11 activity, % of water-treated controls (HDAC 11; 100 ug/ml): 22%
HDAC 11 activity, % of water-treated controls (HDAC 11; 200 ug/ml): 43%
HDAC 2 activity, % of water-treated controls (HDAC2; 25 ug/ml): 20%
HDAC 2 activity, % of water-treated controls (HDAC2; 50 ug/ml): 20%
HDAC 2 activity, % of water-treated controls (HDAC2; 100 ug/ml): 17%
HDAC 2 activity, % of water-treated controls (HDAC2; 200 ug/ml): 15%
FABP-5 IC50 (FABP-5): 644 µg/mL
FABP-3 IC50 (FABP-3): 242.4 µg/mL

CCCC(=O)N[C@@H](CC(C)C)C(=O)[O-].CCCC(=O)N[C@@H](CC(C)C)C(=O)[O-].[Zn+2] [Zn di-(n-butyryl leucinate), Zinc di-(n-butyryl leucinate)]
FAAH IC50 (FAAH): 41.3 µg/mL
HDAC 6 activity, % of water-treated controls (HDAC6; 5 ug/ml): 20%
HDAC 6 activity, % of water-treated controls (HDAC6; 25 ug/ml): 20%
HDAC 6 activity, % of water-treated controls (HDAC6; 50 ug/ml): 21%
HDAC 6 activity, % of water-treated controls (HDAC6; 100 ug/ml): 20%
HDAC 6 activity, % of water-treated controls (HDAC6; 200 ug/ml): 17%
HDAC 11 activity, % of water-treated controls (HDAC 11; 5 ug/ml): 102%
HDAC 11 activity, % of water-treated controls (HDAC 11; 25 ug/ml): 100%
HDAC 11 activity, % of water-treated controls (HDAC 11; 50 ug/ml): 93%
HDAC 11 activity, % of water-treated controls (HDAC 11; 100 ug/ml): 71%
HDAC 11 activity, % of water-treated controls (HDAC 11; 200 ug/ml): 39%
HDAC 2 activity, % of water-treated controls (HDAC2; 25 ug/ml): 39%
HDAC 2 activity, % of water-treated controls (HDAC2; 50 ug/ml): 37%
HDAC 2 activity, % of water-treated controls (HDAC2; 100 ug/ml): 31%
HDAC 2 activity, % of water-treated controls (HDAC2; 200 ug/ml): 28%
FABP-5 IC50 (FABP-5): 390.5 µg/mL
FABP-3 IC50 (FABP-3): 630.9 µg/mL

Zinc Di-lysinate [Zn dilysinate]
HDAC 1 activity, % of water-treated controls (HDAC1; 25 ug/ml): 52%
HDAC 1 activity, % of water-treated controls (HDAC1; 50 ug/ml): 44%
HDAC 1 activity, % of water-treated controls (HDAC1; 100 ug/ml): 32%
FAAH IC50 (FAAH): 791.8 µg/mL
HDAC 6 activity, % of water-treated controls (HDAC6; 5 ug/ml): 22%
HDAC 6 activity, % of water-treated controls (HDAC6; 25 ug/ml): 16%
HDAC 6 activity, % of water-treated controls (HDAC6; 50 ug/ml): 17%
HDAC 6 activity, % of water-treated controls (HDAC6; 100 ug/ml): 14%
HDAC 6 activity, % of water-treated controls (HDAC6; 200 ug/ml): 8%
HDAC 11 activity, % of water-treated controls (HDAC 11; 25 ug/ml): 91%
HDAC 11 activity, % of water-treated controls (HDAC 11; 50 ug/ml): 84%
HDAC 11 activity, % of water-treated controls (HDAC 11; 100 ug/ml): 47%
HDAC 11 activity, % of water-treated controls (HDAC 11; 200 ug/ml): 38%
HDAC 2 activity, % of water-treated controls (HDAC2; 25 ug/ml): 12%
HDAC 2 activity, % of water-treated controls (HDAC2; 50 ug/ml): 1%
HDAC 2 activity, % of water-treated controls (HDAC2; 100 ug/ml): 1%
HDAC 2 activity, % of water-treated controls (HDAC2; 200 ug/ml): 9%
FABP-5 IC50 (FABP-5): 3,014 μg/ml
FABP-3 IC50 (FABP-3): 255.2 µg/mL

— US20260041620A1, “NOVEL AMINO ACID BASED SALTS, COMPOSITIONS AND METHODS FOR TREATING SKIN AND IMPROVING SKIN REJUVENATION AND LONGEVITY” (Sytheon Ltd, priority 2023, published 2026)
